According to ChEMBL document CHEMBL1147087, “An antidepressant that extends lifespan in adult Caenorhabditis elegans” (Nature, 2007):

Experiments:
Type in all cases: functional
Caenorhabditis elegans [1] = test: Effect on life span of Caenorhabditis elegans at 50 uM
Caenorhabditis elegans [2] = test: Effect on life span of Caenorhabditis elegans at 100 uM
Caenorhabditis elegans [3] = test: Effect on life span of Caenorhabditis elegans at 200 uM
Caenorhabditis elegans [4] = test: Effect on life span of Caenorhabditis elegans ser7(tm1325) mutant at 50 uM
Caenorhabditis elegans [5] = test: Effect on life span of Caenorhabditis elegans ser4(ok512) mutant at 50 uM
Caenorhabditis elegans [6] = test: (§1) Effect on life span of Caenorhabditis elegans N2 treated on day 5 at 50 uM
Caenorhabditis elegans [7] = test: Effect on life span of Caenorhabditis elegans ser3(ok2007) mutant at 50 uM
Caenorhabditis elegans [8] = test: Effect on life span of diet restricted Caenorhabditis elegans N2 at 50 uM
Caenorhabditis elegans [9] = test: Effect on life span of Caenorhabditis elegans eat2(ad1116) mutant at 50 uM
Caenorhabditis elegans [10] = test: Effect on life span of Caenorhabditis elegans N2 treated on day 1 at 50 uM
Caenorhabditis elegans [11] = test: Effect on life span of Caenorhabditis elegans daf16(mu86) mutant at 50 uM
Caenorhabditis elegans [12] = test: Effect on life span of Caenorhabditis elegans at 3000 uM
Caenorhabditis elegans [13] = test: Effect on life span of Caenorhabditis elegans at 1000 uM
Caenorhabditis elegans [14] = test: Effect on life span of Caenorhabditis elegans at 10 uM
Caenorhabditis elegans [15] = test: Effect on life span of Caenorhabditis elegans daf2 mutant at 50 uM
Caenorhabditis elegans [16] = test: Effect on life span of Caenorhabditis elegans mod5 mutant at 50 uM
Caenorhabditis elegans [17] = test: as §1; remark: listed apart in the source
Caenorhabditis elegans [18] = test: Effect on life span of Caenorhabditis elegans clk1([…]) mutant at 50 uM
Caenorhabditis elegans [19] = test: Effect on life span of Caenorhabditis elegans mod1 mutant at 50 uM
Caenorhabditis elegans [20] = test: Effect on life span of Caenorhabditis elegans N2 at 50 uM
Caenorhabditis elegans [21] = test: Effect on life span of Caenorhabditis elegans ser3(ad1774) mutant at 50 uM
Caenorhabditis elegans [22] = test: Effect on life span of Caenorhabditis elegans daf16 mutant at 50 uM
Caenorhabditis elegans [23] = test: Effect on life span of Caenorhabditis elegans N2 treated on day 1 at 200 uM
Caenorhabditis elegans [24] = test: Effect on life span of Caenorhabditis elegans ser1 mutant at 50 uM
Caenorhabditis elegans [25] = test: Effect on life span of Caenorhabditis elegans N2 at 2 uM
Caenorhabditis elegans [26] = test: Effect on life span of Caenorhabditis elegans N2 at 250 uM
Caenorhabditis elegans [27] = test: Effect on life span of Caenorhabditis elegans N2 from L1 stage at 50 uM
Caenorhabditis elegans [28] = test: Effect on life span of Caenorhabditis elegans N2 at 10 uM
Caenorhabditis elegans [29] = test: Effect on life span of Caenorhabditis elegans ser3 mutant at 10 uM
Caenorhabditis elegans [30] = test: Effect on life span of Caenorhabditis elegans ser3 mutant at 250 uM
Caenorhabditis elegans [31] = test: Effect on life span of Caenorhabditis elegans ser2 mutant at 50 uM
Caenorhabditis elegans [32] = test: Effect on life span of Caenorhabditis elegans tph1 mutant at 50 uM
Caenorhabditis elegans [33] = test: Effect on life span of Caenorhabditis elegans N2 from L1 stage at 200 uM
Caenorhabditis elegans [34] = test: Effect on life span of Caenorhabditis elegans ser3 mutant at 50 uM
Caenorhabditis elegans [35] = test: Effect on life span of Caenorhabditis elegans N2 treated on day 1 at 2 uM
Caenorhabditis elegans [36] = test: Effect on life span of Caenorhabditis elegans clk1 mutant at 50 uM
Caenorhabditis elegans [37] = test: Effect on life span of Caenorhabditis elegans ser3 mutant at 2 uM
Caenorhabditis elegans [38] = test: Effect on life span of Caenorhabditis elegans tph1 mutant at 250 uM
Caenorhabditis elegans [39] = test: Effect on life span of Caenorhabditis elegans ser2(pk1357) mutant at 50 uM
Caenorhabditis elegans [40] = test: Effect on life span of Caenorhabditis elegans tph(mg280) mutant at 50 uM
Caenorhabditis elegans [41] = test: Effect on life span of Caenorhabditis elegans mod5(n3314) mutant at 50 uM
Caenorhabditis elegans [42] = test: Effect on life span of Caenorhabditis elegans ser1(ok345) mutant at 50 uM
Caenorhabditis elegans [43] = test: Effect on life span of Caenorhabditis elegans N2 from L1 stage at 100 uM
Caenorhabditis elegans [44] = test: Effect on life span of Caenorhabditis elegans N2 treated on day 1 at 100 uM
Caenorhabditis elegans [45] = test: Effect on life span of Caenorhabditis elegans ser4 mutant at 250 uM
Caenorhabditis elegans [46] = test: Effect on life span of Caenorhabditis elegans ser7 mutant at 50 uM
Caenorhabditis elegans [47] = test: Effect on life span of Caenorhabditis elegans daf2(e1370) mutant at 50 uM
Caenorhabditis elegans [48] = test: Effect on life span of Caenorhabditis elegans mod1(ok103) mutant at 50 uM
Caenorhabditis elegans [49] = test: Effect on life span of Caenorhabditis elegans eat2 mutant at 50 uM
Caenorhabditis elegans [50] = test: Effect on life span of Caenorhabditis elegans N2 treated on day 1 at 10 uM
Caenorhabditis elegans [51] = test: Effect on life span of Caenorhabditis elegans ser4 mutant at 50 uM
Caenorhabditis elegans [52] = test: Effect on life span of Caenorhabditis elegans N2 from L1 stage at 10 uM
Caenorhabditis elegans [53] = test: Effect on life span of Caenorhabditis elegans N2 from L1 stage at 2 uM
Caenorhabditis elegans [54] = test: Effect on life span of Caenorhabditis elegans ser4 mutant at 2 uM
Caenorhabditis elegans [55] = test: Effect on life span of Caenorhabditis elegans at 250 uM
Caenorhabditis elegans [56] = test: Increase in life span of Caenorhabditis elegans
Caenorhabditis elegans [57] = test: Effect on life span of Caenorhabditis elegans ser7 mutant at 10 uM
Caenorhabditis elegans [58] = test: Effect on life span of Caenorhabditis elegans tph1 mutant at 10 uM
Caenorhabditis elegans [59] = test: Effect on life span of Caenorhabditis elegans mod5 mutant at 10 uM
Caenorhabditis elegans [60] = test: Effect on life span of Caenorhabditis elegans ser2 mutant at 10 uM
Caenorhabditis elegans [61] = test: Effect on life span of Caenorhabditis elegans clk1 mutant at 10 uM
Caenorhabditis elegans [62] = test: Effect on life span of Caenorhabditis elegans eat2 mutant at 10 uM
Caenorhabditis elegans [63] = test: Effect on life span of Caenorhabditis elegans ser1 mutant at 10 uM
Caenorhabditis elegans [64] = test: Effect on life span of Caenorhabditis elegans daf16 mutant at 10 uM
Caenorhabditis elegans [65] = test: Effect on life span of Caenorhabditis elegans daf2 mutant at 10 uM
Caenorhabditis elegans [66] = test: Effect on life span of Caenorhabditis elegans ser4 mutant at 10 uM
Caenorhabditis elegans [67] = test: Effect on life span of Caenorhabditis elegans mod1 mutant at 10 uM
Caenorhabditis elegans [68] = test: Effect on life span of Caenorhabditis elegans N2 treated on day 5 at 10 uM

CCCN(CCC)C1CCc2cccc(O)c2C1 (centres undefined) [8-OH-DPAT]
Activity (Caenorhabditis elegans [1]): 3%
Activity (Caenorhabditis elegans [2]): 8%
Activity (Caenorhabditis elegans [3]): -13%

Clc1cccc(N2CCNCC2)c1 [CHLOROPHENYLPIPERAZINE]
Activity (Caenorhabditis elegans [1]): -26%

N[C@@H](Cc1ccccc1)C(=O)O [PHENYLALANINE]
Activity (Caenorhabditis elegans [1]): -1%
Activity (Caenorhabditis elegans [3]): -2%

CN1CCC(=C2c3ccccc3C=Cc3ccccc32)CC1 [CYPROHEPTADINE]
Activity (Caenorhabditis elegans [1]): 19%
Activity (Caenorhabditis elegans [4]): 54%
Activity (Caenorhabditis elegans [5]): 16%
Activity (Caenorhabditis elegans [6]): 7%
Activity (Caenorhabditis elegans [2]): 17%
Activity (Caenorhabditis elegans [7]): -4%
Activity (Caenorhabditis elegans [8]): 9%
Activity (Caenorhabditis elegans [9]): 4%
Activity (Caenorhabditis elegans [10]): 33%
Activity (Caenorhabditis elegans [11]): 6%

NCCc1c[nH]c2ccc(O)cc12 [SEROTONIN]
Activity (Caenorhabditis elegans [12]): -6%
Activity (Caenorhabditis elegans [13]): -8%

CN(C)Cc1c[nH]c2ccccc12 [GRAMINE]
Activity (Caenorhabditis elegans [1]): 2%
Activity (Caenorhabditis elegans [14]): 3%

CN1CCN2c3ncccc3Cc3ccccc3C2C1 (centres undefined) [MIRTAZAPINE]
Activity (Caenorhabditis elegans [1]): 20%
Activity (Caenorhabditis elegans [2]): 5%

CNCCCN1c2ccccc2CCc2ccccc21 [DESIPRAMINE]
Activity (Caenorhabditis elegans [1]): -2%
Activity (Caenorhabditis elegans [3]): 3%
Activity (Caenorhabditis elegans [14]): -6%

CN1CCN2c3ccccc3Cc3ccccc3C2C1 (centres undefined) [MIANSERIN]
Activity (Caenorhabditis elegans [15]): 16%
Activity (Caenorhabditis elegans [16]): 14%
Activity (Caenorhabditis elegans [17]): 1%
Activity (Caenorhabditis elegans [18]): 3%
Activity (Caenorhabditis elegans [19]): 29%
Activity (Caenorhabditis elegans [20]): 48%
Activity (Caenorhabditis elegans [1]): 25%
Activity (Caenorhabditis elegans [21]): 3%
Activity (Caenorhabditis elegans [22]): 12%
Activity (Caenorhabditis elegans [23]): -4%
Activity (Caenorhabditis elegans [24]): 53%
Activity (Caenorhabditis elegans [25]): 19%
Activity (Caenorhabditis elegans [26]): -17%
Activity (Caenorhabditis elegans [27]): 10%
Activity (Caenorhabditis elegans [4]): 60%
Activity (Caenorhabditis elegans [28]): 31%
Activity (Caenorhabditis elegans [29]): -2%
Activity (Caenorhabditis elegans [30]): -1%
Activity (Caenorhabditis elegans [31]): 19%
Activity (Caenorhabditis elegans [32]): 10%
Activity (Caenorhabditis elegans [33]): 5%
Activity (Caenorhabditis elegans [34]): -5%
Activity (Caenorhabditis elegans [35]): 13%
Activity (Caenorhabditis elegans [36]): 10%
Activity (Caenorhabditis elegans [5]): 7%
Activity (Caenorhabditis elegans [37]): -3%
Activity (Caenorhabditis elegans [38]): -1%
Activity (Caenorhabditis elegans [6]): 6%
Activity (Caenorhabditis elegans [39]): 19%
Activity (Caenorhabditis elegans [40]): 0%
Activity (Caenorhabditis elegans [41]): 2%
Activity (Caenorhabditis elegans [7]): -2%
Activity (Caenorhabditis elegans [42]): 38%
Activity (Caenorhabditis elegans [43]): -4%
Activity (Caenorhabditis elegans [44]): 13%
Activity (Caenorhabditis elegans [45]): -20%
Activity (Caenorhabditis elegans [46]): 50%
Activity (Caenorhabditis elegans [8]): 4%
Activity (Caenorhabditis elegans [47]): 11%
Activity (Caenorhabditis elegans [48]): 25%
Activity (Caenorhabditis elegans [9]): 2%
Activity (Caenorhabditis elegans [49]): -4%
Activity (Caenorhabditis elegans [50]): 18%
Activity (Caenorhabditis elegans [10]): 31%
Activity (Caenorhabditis elegans [51]): 7%
Activity (Caenorhabditis elegans [11]): 14%
Activity (Caenorhabditis elegans [52]): 9%
Activity (Caenorhabditis elegans [53]): 8%
Activity (Caenorhabditis elegans [54]): 6%

COc1ccccc1N1CCN(CCCCN2C(=O)c3ccccc3C2=O)CC1 [NAN-190]
Activity (Caenorhabditis elegans [1]): -11%
Activity (Caenorhabditis elegans [2]): 2%

CN(C)CCCN1c2ccccc2CCc2ccccc21 [IMIPRAMINE]
Activity (Caenorhabditis elegans [1]): -1%
Activity (Caenorhabditis elegans [3]): -2%
Activity (Caenorhabditis elegans [14]): -3%

CN[C@H]1CC[C@@H](c2ccc(Cl)c(Cl)c2)c2ccccc21 [SERTRALINE]
Activity (Caenorhabditis elegans [1]): -76%
Activity (Caenorhabditis elegans [55]): -80%

O=C1c2ccccc2S(=O)(=O)N1CCCCN1CCN(c2ncccn2)CC1 [IPSAPIRONE]
Activity (Caenorhabditis elegans [1]): 3%
Activity (Caenorhabditis elegans [2]): 0%

O=C1CC(c2cccc([N+](=O)[O-])c2)CC2=C1C(c1ccccc1)Nc1ccccc1N2 (centres undefined)
Activity (Caenorhabditis elegans [56]): 20%

CNCCC(Oc1ccc(C(F)(F)F)cc1)c1ccccc1 (centres undefined) [FLUOXETINE]
Activity (Caenorhabditis elegans [1]): -12%
Activity (Caenorhabditis elegans [2]): -11%
Activity (Caenorhabditis elegans [3]): -48%

c1cc2c(c(N3CCNCC3)c1)OCCO2 [ELTOPRAZINE]
Activity (Caenorhabditis elegans [1]): -12%
Activity (Caenorhabditis elegans [2]): -8%

CSc1ccc2c(c1)C(N1CCN(C)CC1)Cc1ccccc1S2 (centres undefined) [METITEPINE]
Activity (Caenorhabditis elegans [57]): 40%
Activity (Caenorhabditis elegans [58]): -2%
Activity (Caenorhabditis elegans [59]): 8%
Activity (Caenorhabditis elegans [60]): 17%
Activity (Caenorhabditis elegans [61]): 10%
Activity (Caenorhabditis elegans [28]): 25%
Activity (Caenorhabditis elegans [29]): -9%
Activity (Caenorhabditis elegans [62]): -3%
Activity (Caenorhabditis elegans [30]): -1%
Activity (Caenorhabditis elegans [63]): 38%
Activity (Caenorhabditis elegans [64]): 10%
Activity (Caenorhabditis elegans [65]): 21%
Activity (Caenorhabditis elegans [66]): 8%
Activity (Caenorhabditis elegans [67]): 21%
Activity (Caenorhabditis elegans [68]): -1%
Activity (Caenorhabditis elegans [14]): 25%

COc1ccccc1N1CCN(CCCCN2C(=O)CCC2=O)CC1
Activity (Caenorhabditis elegans [1]): 6%
Activity (Caenorhabditis elegans [2]): -4%

Fc1ccc([C@@H]2CCNC[C@H]2COc2ccc3c(c2)OCO3)cc1 [PAROXETINE]
Activity (Caenorhabditis elegans [1]): -42%
Activity (Caenorhabditis elegans [55]): -76%
